This data set deals with T1, SFRP-1 (Homo sapiens, UniProt Q8N474).
T1 sequence (Q8N474 32-314): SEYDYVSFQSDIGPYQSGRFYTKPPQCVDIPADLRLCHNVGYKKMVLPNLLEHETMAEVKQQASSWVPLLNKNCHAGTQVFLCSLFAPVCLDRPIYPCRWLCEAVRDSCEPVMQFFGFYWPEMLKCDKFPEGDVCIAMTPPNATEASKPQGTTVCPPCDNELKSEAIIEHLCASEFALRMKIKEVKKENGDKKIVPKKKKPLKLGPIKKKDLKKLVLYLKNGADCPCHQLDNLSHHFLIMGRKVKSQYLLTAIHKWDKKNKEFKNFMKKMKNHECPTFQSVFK
Description: Cell-based assay for in vitro measurement of SFRP-1/SARP2 antagonist activity (U2OS cells co-transfected with 16x TCF-tk-Luciferase reporter, Wnt and hSFRP-1).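 On all read-outs here: U2OS cells co-transfected with a TCF-tk luciferase reporter, a Wnt vector, hSFRP-1 or empty vector and CMV-βgal, luciferase luminescence read in cell lysates alongside βgal activity.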 Particulars: for fold induction at 15 µM / fold induction at 30 µM: U2OS. (In general: A reporter such as luciferase makes a cellular process visible.)

[1] abbreviates: read-out: Fold Induction with SFRP-1, Conc 15 μM, with SFRP-1, fold induction over SFRP-1 control, single dose.
The mark [2] stands for this setting: read-out: Fold Induction without SFRP-1, Conc 15 μM, without SFRP-1, single dose.
Where [3] appears, read: read-out: Fold Induction with SFRP-1, Conc 30 μM, with SFRP-1, fold induction over SFRP-1 control, single dose.
[4] abbreviates: read-out: Fold Induction without SFRP-1, Conc 30 μM, without SFRP-1, single dose.

Like-named read-outs stand apart in the source and are kept apart here.

Regarding `Cc1ccc(S(=O)(=O)c2ccccc2)cc1S(=O)(=O)N[C@H]1CCCC[C@@H]1O` (relative stereo) [Example 412, N-[(1S*,2S*)-2-hydroxycyclohexyl]-2-methyl-5-(phenylsulfonyl)benzenesulfonamide], the fold induction at 15 µM under setting [1] was 1.9 and the fold induction at 15 µM under setting [2] was determined as 1.5.
For `Cc1ccc(S(=O)(=O)c2ccccc2)cc1S(=O)(=O)NCCc1ccccc1` [Example 1, 2-Methyl-N-(2-phenylethyl)-5-(phenylsulfonyl)benzene sulfonamide], the fold induction at 30 µM turned out to be 1.5 under setting [3] and 0.6 under setting [4].
The corresponding values for `Cc1ccc(S(=O)(=O)c2ccc(F)cc2)cc1S(=O)(=O)NCCc1ccccc1` [Example 2, 5-[(4-fluorophenyl)sulfonyl]-2-methyl-N-(2-phenylethyl)benzenesulfonamide] are 0.9 and 0.5.
The corresponding values for `Cc1ccc(S(=O)(=O)c2ccc(F)cc2)cc1S(=O)(=O)NCCc1ccccc1Cl` [Example 3, N-[2-(2-chlorophenyl)ethyl]-5-[(4-fluorophenyl)sulfonyl]-2-methylbenzenesulfonamide] are 1.1 and 0.4.
The matching figures for `COc1ccccc1CCNS(=O)(=O)c1cc(S(=O)(=O)c2ccc(F)cc2)ccc1C` [Example 4, 5-[(4-fluorophenyl)sulfonyl]-N-[2-(2-methoxyphenyl)ethyl]-2-methylbenzenesulfonamide]: 0.1 and 0.1.
As for `Cc1ccc(S(=O)(=O)c2ccc(F)cc2)cc1S(=O)(=O)NCCc1cccc(F)c1` [Example 24, N-[2-(3-fluorophenyl)ethyl]-5-[(4-fluorophenyl)sulfonyl]-2-methylbenzenesulfonamide], the fold induction at 30 µM runs as follows: under setting [3], 0.3; under setting [4], 0.3.
With `COc1ccc(Br)cc1CCNS(=O)(=O)c1cc(S(=O)(=O)c2ccc(F)cc2)ccc1C` [Example 30, N-[2-(5-bromo-2-methoxyphenyl)ethyl]-5-[(4-fluorophenyl)sulfonyl]-2-methylbenzenesulfonamide], where the note is “Conc 30 μM, with SFRP-1, fold induction over SFRP-1 control, single dose”, the “Fold Induction with SFRP-1” value is 1 fold. Moreover, the fold induction at 15 µM was found to be 2.4 under setting [1] and 0.9 under setting [2]. The fold induction at 30 µM under setting [3] is 1.7.
For `Cc1ccc(S(=O)(=O)c2ccccc2)cc1S(=O)(=O)NCCc1ccccc1Cl` [Example 31, N-[2-(2-chlorophenyl)ethyl]-2-methyl-5-(phenylsulfonyl)benzenesulfonamide], the fold induction at 30 µM reads like this: under setting [3], 0.4; under setting [4], 0.5.
The corresponding values for `COc1ccccc1CCNS(=O)(=O)c1cc(S(=O)(=O)c2ccccc2)ccc1C` [Example 32, N-[2-(2-methoxyphenyl)ethyl]-2-methyl-5-(phenylsulfonyl)benzenesulfonamide] are 0.5 and 0.5.
The matching figures for `COc1cccc(CCNS(=O)(=O)c2cc(S(=O)(=O)c3ccccc3)ccc2C)c1` [Example 33, N-[2-(3-methoxyphenyl)ethyl]-2-methyl-5-(phenylsulfonyl)benzenesulfonamide]: 1.2 and 0.4.
The matching figures for `COc1ccc(CCNS(=O)(=O)c2cc(S(=O)(=O)c3ccccc3)ccc2C)cc1OC` [Example 34, N-[2-(3,4-dimethoxyphenyl)ethyl]-2-methyl-5-(phenylsulfonyl)benzenesulfonamide]: 1.7 and 0.6.
As to `Cc1ccc(S(=O)(=O)c2ccccc2)cc1S(=O)(=O)NCCc1ccc(S(N)(=O)=O)cc1` [Example 40, N-{2-[4-(aminosulfonyl)phenyl]ethyl}-2-methyl-5-(phenylsulfonyl)benzenesulfonamide], the fold induction at 30 µM was found to be 1.7 under setting [3] and 0.9 under setting [4].
